Laboratory results published in PubChem BioAssay (NCI).
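Where inhibition never reached the appropriate level, the endpoint shown equals the highest concentration tested. Otherwise, values were interpolated linearly from a five-concentration, 48-hour dose response in 96-well plates. The concentration for 50% growth inhibition is given as GI50. TGI denotes the concentration required for complete inhibition of growth.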

What was measured:
Test in all cases: inhibition of tumour cell growth, NCI panel, 48 h
U251 CNS = system: U251 CNS
A498 renal = system: A498 renal
UACC-62 melanoma = system: UACC-62 melanoma
SR leukemia = system: SR leukemia
CAKI-1 renal = system: CAKI-1 renal
HCT-15 colon = system: HCT-15 colon
HT29 colon = system: HT29 colon
HOP-92 NSCLC = system: HOP-92 NSCLC
HCC-2998 colon = system: HCC-2998 colon
HL-60(TB) leukemia = system: HL-60(TB) leukemia

Compound	TGI (U251 CNS)	TGI (A498 renal)	TGI (UACC-62 melanoma)	TGI (SR leukemia)	TGI (CAKI-1 renal)	TGI (HCT-15 colon)	TGI (HT29 colon)	TGI (HOP-92 NSCLC)	TGI (HCC-2998 colon)	GI50 (U251 CNS)	GI50 (A498 renal)	GI50 (UACC-62 melanoma)	GI50 (HL-60(TB) leukemia)	TGI (HL-60(TB) leukemia)	GI50 (CAKI-1 renal)	GI50 (HCT-15 colon)	GI50 (HT29 colon)	GI50 (HOP-92 NSCLC)	GI50 (HCC-2998 colon)	GI50 (SR leukemia)
c1ccc(SC23C4C5C6C4C2C6C53)nc1 (stereo not drawn)	> 100 µM	> 100 µM	> 100 µM	> 35 µM	> 100 µM	> 100 µM	> 100 µM	> 100 µM	> 100 µM											
CC(C)=CC(=O)N[C@H]1CC[C@]2(C)C3CC[C@]4(C)C(C(C)N(C)C)=CCC4C3CCC2[C@H]1O (stereo partly drawn)	15.9 µM	16.6 µM	3.77 µM		14.7 µM	4.2 µM	2.92 µM	22 µM	17.8 µM	3.89 µM	3.82 µM	1.95 µM	3.34 µM	9.11 µM	5.63 µM	1.55 µM	0.676 µM	7.72 µM	5.22 µM	
O=C(Nc1ccc(F)cc1)Nc1ccc(Br)c(C(F)(F)F)c1	7.47 µM	5.15 µM	10.1 µM	6.49 µM		10.8 µM	10.9 µM	5.24 µM	7.73 µM	2.14 µM	1.92 µM	2.29 µM	1.87 µM	5.19 µM		2.35 µM	2.3 µM	1.63 µM	2.38 µM	1.88 µM
CCOC(=O)C1=C(C)N(NC(N)=O)C2(N)N(NC(N)=O)C(C)=C(C(=O)OCC)C12C(=O)OCC (stereo not drawn)	> 100 µM	> 100 µM	> 100 µM	> 100 µM	> 100 µM	> 100 µM	> 100 µM		> 100 µM											
ClCc1ccccc1Cn1cnc2c(Cl)ncnc21	6.11 µM	32.2 µM	6.66 µM		4.14 µM	4.71 µM	> 100 µM	4.27 µM	3.54 µM	2.65 µM	17.4 µM	3.28 µM			1.83 µM	2.07 µM	3.56 µM	1.49 µM	1.67 µM	
COc1ccc2oc(-c3ccc(OC)c(OC)c3OC)cc(=O)c2c1			> 100 µM		> 100 µM		> 100 µM	> 100 µM	> 100 µM					55 µM						
COC1=CC(c2ccc[nH]2)=N/C1=C\c1[nH]c(C)c(CC(=O)OCc2ccccc2)c1C	1.73 µM	2.3 µM			2.27 µM	1.1 µM	1.41 µM	0.81 µM		0.319 µM	0.433 µM		0.537 µM	2.44 µM	0.307 µM	0.292 µM	0.205 µM	0.244 µM		
COc1cc(C(C)c2cc3c(cc2OCCNC(=O)COc2cc4c(cc2C(C)c2cc(OC)c(OC)c(OC)c2)OCO4)OCO3)cc(OC)c1OC (stereo not drawn)	> 100 µM	> 100 µM	> 100 µM	> 100 µM	> 100 µM	> 100 µM	> 100 µM		> 100 µM					> 100 µM						
CCCCc1c2cnccc2c(CCCC)c2c1[nH]c1ccccc12	27 µM	35.2 µM	23.7 µM		30.2 µM	46 µM	29 µM	47.7 µM	> 100 µM											
O=C1CNC(=O)c2[nH]cnc2N1	> 100 µM	> 100 µM	> 100 µM	> 100 µM		> 100 µM	> 100 µM		> 100 µM					> 100 µM						
C=C1C(=O)O[C@H]2[C@H]1CC/C(COC(=O)CCCc1c[nH]c3ccccc13)=C\CC[C@@]1(C)O[C@@H]21	3.67 µM	24.3 µM	3.79 µM	6.37 µM		3.99 µM	3.37 µM	3.46 µM	3.46 µM	1.95 µM	11.9 µM	1.84 µM	1.63 µM	5.01 µM		1.61 µM	1.71 µM	1.68 µM	1.79 µM	1.73 µM
C=C1C(=O)O[C@H]2[C@H]1CC/C(COC(=O)OC/C1=C/CC[C@@]3(C)O[C@H]3[C@H]3OC(=O)[C@@H](CN(C)C)[C@@H]3CC1)=C\CC[C@@]1(C)O[C@@H]21	12.5 µM	21.8 µM	5.13 µM			2.53 µM	2.47 µM	1.98 µM	8.2 µM	3.3 µM	8.29 µM	1.85 µM	0.233 µM	0.845 µM		1.04 µM	0.996 µM	0.497 µM	2.96 µM	
CC(=O)NC(CSC1=C2NC(=O)\C=C/C=C/C=C\C(C)C(O)CC(=O)/C(C)=C\CC(O)/C=C/C(C)C(O)C(C)C=C(C)C(=O)c3c(O)c(C)cc(c3C1=O)C2=O)C(=O)O (stereo not drawn)	> 100 µM	> 100 µM	> 100 µM	> 100 µM	> 100 µM	> 100 µM	> 100 µM	> 100 µM						73.2 µM						
O=C(Nc1ccccc1-c1nn(CN2CCNCC2)c(=S)n(CN2CCNCC2)c1=O)C(F)(F)F	31.7 µM	35.3 µM	32.5 µM		55.2 µM	31.6 µM	57.5 µM	45.8 µM	33.4 µM					43.2 µM						
COc1ccc2c(c1)NC1(O)c3ccccc3C(=O)C21O (stereo not drawn)	> 100 µM	> 100 µM	> 100 µM	> 100 µM	> 100 µM		> 100 µM	> 100 µM						> 100 µM						
CCCN(CCC)C(=O)c1nc(N)nc(-c2ccc(OC)cc2)c1-c1ccc(OC)cc1	> 100 µM	> 100 µM	> 100 µM		> 100 µM	> 100 µM	> 100 µM	> 100 µM						> 100 µM						
C/C(CC(=O)Nc1ccccc1C)=N/NS(=O)(=O)c1ccc(C)cc1	> 100 µM	> 100 µM	> 100 µM				> 100 µM	> 100 µM	> 100 µM					> 100 µM						
COc1cc2c(cc1OC)C1Cc3ccc(OC)c(OC)c3C[N+]1([O-])CC2 (stereo not drawn)	> 100 µM	> 100 µM			> 100 µM		> 100 µM		> 100 µM											
NC(=O)c1cccc(OCC(O)CO)c1 (stereo not drawn)	> 100 µM	> 100 µM	> 100 µM	> 100 µM	> 100 µM	> 100 µM	> 100 µM		> 100 µM					> 100 µM						
